The source of these data is patent US20100285959A1, “HERBICIDAL MIXTURES” (priority 2006, published 2010).

SMILES strings stand for the structures.

Series [1] relates to field poppy (PAPRH). As to the kind of experiment: Test 24 growth chamber, postemergence. The class given is in vivo, Papaver rhoeas. To be noted: 17 DAA. On the procedure:
(§1) Plants were treated postemergence at the 2-4 leaf growth stage, and each treatment was replicated three times. […] Plants were watered as needed. […] Results for barley and wheat are the means across varieties of the three replicates, and results for the weeds are the means of the three replicates.

Series [2] deals with common lambsquarters (CHEAL). Put plainly: Test 26 field trial, postemergence. The class given is in vivo, Chenopodium album. Set-up: scale not given here. The source says: Corn seeds (hybrid ‘Pioneer 31G96’) were planted in mid spring season, 3.8 cm deep in a silt loam soil having 2% organic matter and a pH of 6.6. Plots were 6.1 m long by 3.0 m wide with rows spaced 76 cm apart. Seeds were spaced 15 cm apart within the rows. The field was managed using conventional tillage practices. […] All treatments also included a surfactant. […] Some of the weed species could not be evaluated at every timing. […] Results are the means of the three replicates.

Series [3] has as its system winter wheat (TRZAW). Put plainly: Test 27 field trial, postemergence. Set-up: scale not given here. In kind it is in vivo, Triticum aestivum. The source says: Wheat seeds (cv. ‘Custer’) were planted in late fall season in a clay loam soil. Plots were 9 m long by 1.8 m wide. The field was managed using conventional tillage practices. […] All treatments also included a surfactant. […] Results are the means of the three replicates.

Series [4] relates to winter wheat (TRZAW). As to the kind of experiment: Test 24 growth chamber, postemergence. The class given is in vivo, Triticum aestivum. Particulars: 17 DAA. As for the experimental part:
as §1

The test system of series [5] is kochia (KCHSC). As to the kind of experiment: Test 24 growth chamber, postemergence. The class given is in vivo, Kochia scoparia. Particulars: 17 DAA. As for the experimental part: as §1
The subject of series [6] is corn (ZEAMD). Put plainly: Test 25 field trial, postemergence, growth as percent of control. In kind it is in vivo, Zea mays ssp. indentata. Particulars: hybrid Pioneer 31G96 RR, Zea mays ssp. indentata (corn), in vivo. The source says:
Corn seeds (hybrid ‘Pioneer 31G96 RR’) were planted in mid spring season, 3.8 cm deep in a clay loam soil having 2% organic matter and a pH of 6.6. Plots were 6.1 m long by 3.0 m wide with rows spaced 76 cm apart. Seeds were spaced 15 cm apart within the rows. The field was managed using conventional tillage practices. […] Giant ragweed and Pennsylvania smartweed could only be evaluated 14 days after application. […] Results are the means of the three replicates. This growth inhibition data was converted to results in the form of “plant growth as a percent of control plant growth” using the calculation “100 minus growth inhibition”.
When this form of Colby's Equation is used, if the observed effects on weeds are less than the expected values, the mixture is synergistic.

Series [7] deals with corn (ZEAMD). As to the kind of experiment: Test 14 field trial, preemergence, growth as percent of control. In kind it is in vivo, Zea mays ssp. indentata. Particulars: 1870 g a.i./ha. The source says:
Corn seeds (hybrid ‘Pioneer 31G96 RR’) were planted in mid spring season, 3.8 cm deep in a clay loam soil having 2% organic matter and a pH of 6.6. Plots were 6.1 m long by 3.0 m wide with rows spaced 76 cm apart. Seeds were spaced 15 cm apart within the rows. The field was managed using conventional tillage practices. […] Yellow nutsedge was only evaluated 19 and 28 days after application, and ivyleaf morningglory could only be evaluated 28 days after application. […] Results are the means of the three replicates. This growth inhibition data was converted to results in the form of “plant growth as a percent of control plant growth” using the calculation “100 minus growth inhibition”. […] For “growth as a percent of control” data, Colby's Equation calculates the expected additive effect of herbicidal mixtures having two active ingredients as follows:
Ga+b=GaGb/100 • wherein Ga+b is the growth as a percent of control of plants treated with the mixture expected from additive contribution of the individual components, • Ga is the observed growth as a percent of control of plants treated with the first active ingredient at the same use rate as in the mixture, and • Gb is the observed growth as a percent of control of plants treated with the second active ingredient at the same use rate as in the mixture. For mixtures having three active ingredients, Colby's Equation to calculate the expected additive effect of herbicidal mixtures is as follows:
Ga+b+c=GaGbGc/10,000 • wherein Ga and Gb are as defined above and • Ga+b+c is the growth as a percent of control of plants treated with the mixture expected from additive contribution of the individual components, and • Gc is the observed growth as a percent of control of plants treated with the third active ingredient at the same use rate as in the mixture. When these two forms of Colby's Equation are used, if the observed effects on weeds are less than the expected values, the mixture is synergistic.

On to `COC(=O)c1nc(C2CC2)nc(N)c1Cl` [Compound 2, methyl 6-amino-5-chloro-2-cyclopropyl-4-pyrimidinecarboxylate], for which the entries for the “PAPRH Obs (scale 0 to 100)” value in series [1] (Cpd 2 4 g a.i./ha), in series [1] (Cpd 2 8 g a.i./ha) and in series [1] (Cpd 2 16 g a.i./ha) were 62, 72 and 75, respectively. Besides, the “CHEAL Obs” value in series [2] (14 DAA, 30 g a.i./ha) was 88; in series [2] (14 DAA, 45 g a.i./ha), 63; in series [2] (14 DAA, 60 g a.i./ha) it was 100; in series [2] (28 DAA, 30 g a.i./ha), 100; in series [2] (28 DAA, 45 g a.i./ha), 100; in series [2] (28 DAA, 60 g a.i./ha) it was 100. The “CHEAL Obs” value in series [2] (56 DAA, 30 g a.i./ha) came to 100; in series [2] (56 DAA, 45 g a.i./ha) it was 100; in series [2] (56 DAA, 60 g a.i./ha), 100. Besides, the “TRZAW Obs” value in series [3] (16 DAA, 15 g a.i./ha) amounted to 2; in series [3] (16 DAA, 30 g a.i./ha), 10; in series [3] (16 DAA, 45 g a.i./ha) it was 17; in series [3] (28 DAA, 15 g a.i./ha), 0; in series [3] (28 DAA, 30 g a.i./ha) it was 12; in series [3] (28 DAA, 45 g a.i./ha), 25. Further, the “TRZAW Obs” value was 3 in series [3] (49 DAA, 15 g a.i./ha); 17 in series [3] (49 DAA, 30 g a.i./ha); 35 in series [3] (49 DAA, 45 g a.i./ha). Moreover, the “TRZAW Obs (scale 0 to 100)” value is 21 in series [4] (Cpd 2 4 g a.i./ha), 33 in series [4] (Cpd 2 8 g a.i./ha) and 39 in series [4] (Cpd 2 16 g a.i./ha). Moreover, the “KCHSC Obs (scale 0 to 100)” value is 65 in series [5] (Cpd 2 4 g a.i./ha), 77 in series [5] (Cpd 2 8 g a.i./ha) and 88 in series [5] (Cpd 2 16 g a.i./ha). Besides, the “ZEAMD Obs (percent of control)” value in series [6] (14 days after application) and in series [6] (56 days after application) was 100% in each case.

`CCc1cccc(C)c1N(C(=O)CCl)[C@@H](C)COC` [S-Metolachlor, S-metolachlor, reference compound]: the figures for the “Obs growth % of control” value in series [7] (19 DAA), in series [7] (28 DAA) and in series [7] (56 DAA) were 98%, 98% and 100%, respectively.
